Here are results for six compounds from paper PMC2749987 (European journal of pharmacology, 2009).

The target in test [1] is T1, human 5-HT2C receptor (Homo sapiens, UniProt P28335).
T1 sequence (P28335 33-458): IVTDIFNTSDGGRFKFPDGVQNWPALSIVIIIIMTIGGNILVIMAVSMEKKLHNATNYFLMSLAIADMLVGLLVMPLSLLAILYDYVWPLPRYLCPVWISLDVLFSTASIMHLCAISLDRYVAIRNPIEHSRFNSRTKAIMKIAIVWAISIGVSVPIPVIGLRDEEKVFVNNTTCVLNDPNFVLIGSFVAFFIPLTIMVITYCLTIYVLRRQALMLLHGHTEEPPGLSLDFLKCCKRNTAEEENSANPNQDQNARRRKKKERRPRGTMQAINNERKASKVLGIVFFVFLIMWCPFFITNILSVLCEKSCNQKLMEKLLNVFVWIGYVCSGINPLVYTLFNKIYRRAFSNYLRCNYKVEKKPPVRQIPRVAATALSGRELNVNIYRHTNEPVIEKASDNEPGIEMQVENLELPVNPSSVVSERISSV
It is filed as cell-based.

Test [2] has as its target T2, human 5-HT2B receptor (Homo sapiens, UniProt P41595).
Test [3] deals with T3, human 5-HT2A receptor (Homo sapiens, UniProt P28223). The format is cell-based.
Test [4] deals with T2, human 5-HT2B receptor. The format is binding. The conditions noted are these: for nH (Hill slope), 5-HT2B binding: competition binding.
For test [5], the target named is T3, human 5-HT2A receptor. The format is binding. The conditions noted are these: for nH (Hill slope), 5-HT2A binding: competition binding.
For test [6], the target named is T1, human 5-HT2C receptor. It is filed as binding. The conditions noted are these: for nH (Hill slope), 5-HT2C binding: competition binding.
In another test the test system is mice. The conditions noted are these: intraperitoneal single-dose, ref Rowland et al., 2008, cited from earlier work.
The subject of a further test is 5-HT2A. As to conditions: ref Knight et al., 2004; cited from earlier work.
Test [7] has as its system 5-HT2A receptors. The conditions noted are these: ref Jensen, 2006, Smith et al., Thomsen et al., 2008; cited from earlier work.
The test system of a further test is rats. The conditions noted are these: oral single-dose, ref Thomsen et al., 2008, cited from earlier work.
Test [8] concerns 5-HT2B receptors. The conditions noted are these: ref Jensen, 2006, Smith et al., Thomsen et al., 2008; cited from earlier work.
For test [9], the target named is 5-HT2B receptors. The conditions noted are these: read-out: affinity at 5-HT2B receptors Ki, ref Jensen, 2006, Smith et al., Thomsen et al., 2008; cited from earlier work.
For a further test, the system named is 5-HT2C receptors. The conditions noted are these: ref Jensen, 2006, Smith et al., Thomsen et al., 2008; cited from earlier work.
Test [10] has as its target 5-HT2A receptors. The conditions noted are these: read-out: affinity at 5-HT2A receptors Ki, ref Jensen, 2006, Smith et al., Thomsen et al., 2008; cited from earlier work.
Where [11] appears, read: read-out: 5-HT2B Ki ± SEM, competition vs 5.0 nM [3H]-mesulergine.
Setting [12] is: read-out: 5-HT2A Ki ± SEM, competition vs 1.0 nM [3H]-ketanserin.

Molecules are shown by their SMILES. Read-outs that look alike come from different tables or passages of the source.

T2 sequence (P41595 whole entry): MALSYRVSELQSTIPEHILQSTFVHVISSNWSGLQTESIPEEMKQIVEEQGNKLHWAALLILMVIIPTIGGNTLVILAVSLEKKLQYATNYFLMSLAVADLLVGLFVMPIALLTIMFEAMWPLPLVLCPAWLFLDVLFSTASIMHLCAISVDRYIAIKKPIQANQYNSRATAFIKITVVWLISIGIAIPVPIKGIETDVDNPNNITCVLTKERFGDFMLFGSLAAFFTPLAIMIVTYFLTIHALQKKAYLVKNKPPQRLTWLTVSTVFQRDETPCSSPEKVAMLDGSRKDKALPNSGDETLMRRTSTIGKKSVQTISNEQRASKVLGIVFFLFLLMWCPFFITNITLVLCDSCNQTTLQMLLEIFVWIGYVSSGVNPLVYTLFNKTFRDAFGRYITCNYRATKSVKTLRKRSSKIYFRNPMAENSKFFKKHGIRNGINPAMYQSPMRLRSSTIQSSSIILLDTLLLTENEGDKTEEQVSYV
T3 sequence (P28223 whole entry): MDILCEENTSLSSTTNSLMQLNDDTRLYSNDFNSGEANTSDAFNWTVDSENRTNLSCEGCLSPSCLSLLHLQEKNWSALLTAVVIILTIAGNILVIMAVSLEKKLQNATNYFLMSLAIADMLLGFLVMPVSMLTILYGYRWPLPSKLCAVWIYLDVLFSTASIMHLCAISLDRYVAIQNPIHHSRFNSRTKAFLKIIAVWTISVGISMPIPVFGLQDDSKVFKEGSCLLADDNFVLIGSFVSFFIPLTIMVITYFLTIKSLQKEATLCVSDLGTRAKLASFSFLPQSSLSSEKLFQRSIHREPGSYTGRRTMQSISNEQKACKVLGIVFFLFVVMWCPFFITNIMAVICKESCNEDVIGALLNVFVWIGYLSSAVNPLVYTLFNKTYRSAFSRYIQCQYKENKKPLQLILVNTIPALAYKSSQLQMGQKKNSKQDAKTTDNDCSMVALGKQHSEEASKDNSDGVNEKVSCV

Take `CN(C)[C@@H]1Cc2ccccc2[C@@H](c2ccccc2)C1` (relative stereo) [(−)-trans-PAT, (1R,3S)-(−)-trans-1-phenyl-3-dimethylamino-1,2,3,4-tetrahydronaphthalene]: on human 5-HT2C receptor [1], the “potency (EC50) to activate 5-HT2C receptors greater than 5-HT2C affinity (Ki)” value was “about 2 times”. At human 5-HT2C receptor [1] (CHO cells), the “Emax, 5-HT2C activation” value was determined as 464 ± 10.8 % basal control activity and the “nH, 5-HT2C activation” value was found to be 0.75 ± 0.13. For the same compound, on human 5-HT2B receptor [2], the “nH, inverse agonism at 5-HT2B receptors” value was determined as 0.87 ± 0.23 and the “stimulation of PLC/[3H]-IP formation in cells expressing 5-HT2B receptors” value was “does not stimulate”. Moreover, the “(maximal) inhibition of constitutive signaling at 5-HT2B receptors” value at human 5-HT2B receptor [2] (10 μM) was found to be 35.3 ± 2.00%. Further, the “pA2, 5-HT2B receptors” value at human 5-HT2B receptor [2] (vs serotonin) is 5.8. Besides, on human 5-HT2A receptor [3], the “nH, inverse agonism at 5-HT2A receptors” value amounted to 0.85 ± 0.01 and the “stimulation of PLC/[3H]-IP formation in cells expressing 5-HT2A receptors” value is given as “does not stimulate”. On human 5-HT2A receptor [3] (10 μM), the “(maximal) inhibition of constitutive signaling at 5-HT2A receptors” value was 57.6 ± 5.66%. At human 5-HT2A receptor [3] (vs serotonin), the “pA2, 5-HT2A receptors” value turned out to be 6.3. Further, the “nH (Hill slope), 5-HT2B binding” value at human 5-HT2B receptor [4] amounted to 1.0 ± 0.001. For the same compound, the Ki at human 5-HT2B receptor [4] (setting [11]) amounted to 1200 nM. Besides, at human 5-HT2B receptor [4] (read-out: 5-HT2B receptor affinity Ki, as quoted in text from Table), the Ki is approximately 1200 nM. Further, the “nH (Hill slope), 5-HT2A binding” value at human 5-HT2A receptor [5] is on record as 1.1 ± 0.1. Further, the inhibition constant (Ki) at human 5-HT2A receptor [5] (setting [12]) was found to be 410 ± 38 nM. Also, at human 5-HT2A receptor [5] (read-out: 5-HT2A receptor affinity Ki, as quoted in text from Table), the Ki was approximately 400 nM. Further, on human 5-HT2C receptor [6], the “difference in affinity at 5-HT2A and 5-HT2C receptors” value is on record as 10 times; the “nH (Hill slope), 5-HT2C binding” value is given as 0.9 ± 0.1. Besides, the “maximal reduction of food intake” value with mice (at 10 mg/kg) was “about 75%”. Moreover, the “ED50, reduction of food intake” value with mice is 4.2 mg/kg.

Take `CN(C)[C@H]1Cc2ccccc2[C@@H](c2ccccc2)C1` [(+)-cis-PAT]: the “nH (Hill slope), 5-HT2B binding” value on human 5-HT2B receptor [4] was approximately 1.0. Also, the values for the inhibition constant (Ki) at human 5-HT2B receptor [4] (setting [11]) and on human 5-HT2A receptor [5] (setting [12]) were approximately 5000 nM and 780 ± 2 nM, respectively. Further, on human 5-HT2A receptor [5], the “nH (Hill slope), 5-HT2A binding” value came out at 0.9 ± 0.2. In addition, the “nH (Hill slope), 5-HT2C binding” value at human 5-HT2C receptor [6] stood at 0.9 ± 0.1.

In the case of `CN(C)[C@@H]1Cc2ccccc2[C@H](c2ccccc2)C1` [(−)-cis-PAT], on human 5-HT2B receptor [4], the “nH (Hill slope), 5-HT2B binding” value is given as approximately 1.0. For the same compound, the Ki on human 5-HT2B receptor [4] (setting [11]) was approximately 10000 nM; on human 5-HT2A receptor [5] (setting [12]) it was 1500 ± 2 nM. The “nH (Hill slope), 5-HT2A binding” value on human 5-HT2A receptor [5] is reported as 1.0 ± 0.1. The “nH (Hill slope), 5-HT2C binding” value at human 5-HT2C receptor [6] was found to be 0.90 ± 0.04.

As for `COc1cccc([C@H](O)C2CCN(CCc3ccc(F)cc3)CC2)c1OC` [M100907], in the test on 5-HT2A, the “5-HT2A selectivity over 5-HT2B receptors” value was 500 times and the “5-HT2A selectivity over 5-HT2C receptors” value is 15 times.

Take `[3H]C([3H])(N1CCC(C(=O)c2ccc(F)cc2)CC1)C([3H])([3H])n1c(=O)[nH]c2ccccc2c1=O` [[^3H]-Ketanserin, reference compound]: on human 5-HT2A receptor [5] (saturation binding), the “Bmax, 5-HT2A receptors” value was 1.73 ± 0.11 pmol/mg protein.

`C[C@H]1CNCCc2ccc(Cl)cc21` [lorcaserin]: in the test with 5-HT2A receptors [7], the “efficacy, activation of 5-HT2A receptors” value was 75%. Besides, the “maximal reduction of food intake” value with rats (at 24 mg/kg) was “about 60%”. Moreover, the “ED50, reduction of food intake” value in the test with rats is 18 mg/kg. Further, in the test with 5-HT2B receptors [8], the “efficacy, activation of 5-HT2B receptors” value is recorded as 100%. Also, the figures for the Ki on 5-HT2B receptors [9] and on 5-HT2A receptors [10] were approximately 174 nM and approximately 112 nM, respectively. Besides, in the test on 5-HT2C receptors, the “affinity for 5-HT2C receptors higher than at 5-HT2A receptors” value is “about 7.5 times”. Besides, the “affinity for human 5-HT2C over 5-HT2B receptors” value in the test with 5-HT2C receptors is reported as “about 12 times”.
